Assays:
[1] = test system: persian speedwell; assay: Test Example 4: herbicidal effect by soil treatment (Table 19, symbol R); assay type: in vivo, Persian speedwell (Veronica persica)
In short: (§1)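 Soil-surface application: an emulsion agent diluted with water to the predetermined dose is sprayed uniformly over seeds lying under roughly 1.5 cm of sterilized diluvial soil. Boxes stay in a greenhouse at 25° C. to 30° C. Three weeks later, each species is graded on previously defined criteria.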

[2] = test system: barnyard grass; assay: Test Example 5: herbicidal effect by foliage application, plastic box (Table 20, symbol H); assay type: in vivo, barnyard grass (Echinochloa crus-galli); conditions: foliage application, 3 weeks after application
In short: (§2)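 Sow seeds spot-wise in sterilized diluvial soil; cover with ~1.5 cm soil. Grow 14 days in greenhouse, 25° C. to 30° C. Spray foliage with emulsion diluted to predetermined amount. Rate effect after 3 weeks.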

[3] = test system: lambsquarters; assay: Test Example 5: herbicidal effect by foliage application, plastic box (Table 20, symbol O); assay type: in vivo, lambsquarters (Chenopodium album); conditions: foliage application, 3 weeks after application
In short: as §2

[4] = test system: late watergrass; assay: Test Example 1: herbicidal activity, application before weed generation under submerged conditions (Table 16, symbol A); assay type: in vivo, late watergrass (Echinochloa oryzicola)
In short: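 Submerged Wagner pots (alluvial soil, 4 cm water) sown with weed seeds and planted with 2.5-leaf rice seedlings; emulsifiable concentrate diluted in water applied to water surface on sowing day. Held in greenhouse at 25-30 °C; injury scored 0-5 by herbicidal rate after three weeks.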

[5] = test system: Italian ryegrass; assay: Test Example 4: herbicidal effect by soil treatment (Table 19, symbol K); assay type: in vivo, Italian ryegrass (Lolium multiflorum)
In short: as §1

[6] = test system: persian speedwell; assay: Test Example 5: herbicidal effect by foliage application, plastic box (Table 20, symbol R); assay type: in vivo, Persian speedwell (Veronica persica); conditions: foliage application, 3 weeks after application
In short: as §2

[7] = test system: oval-leafed pondweed; assay: Test Example 2: herbicidal activity, application during weed generation under submerged conditions (Table 17, symbol C); assay type: in vivo, oval-leafed pondweed (Monochoria vaginalis); conditions: application during weed generation, submerged conditions
In short: (§3)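 Effect on each weed is rated three weeks post-treatment, using the same scoring criteria as the preceding test. Plants grow from mixed-sown seed in flooded alluvial soil (4 cm water) at 25° C. to 30° C., and are treated at one to two leaves with diluted emulsion dropped onto the water.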

[8] = test system: blackgrass; assay: Test Example 4: herbicidal effect by soil treatment (Table 19, symbol J); assay type: in vivo, blackgrass (Alopecurus myosuroides)
In short: as §1

[9] = test system: southern crabgrass; assay: Test Example 5: herbicidal effect by foliage application, plastic box (Table 20, symbol F); assay type: in vivo, southern crabgrass (Digitaria ciliaris); conditions: foliage application, 3 weeks after application
In short: as §2

[10] = test system: redroot pigweed; assay: Test Example 4: herbicidal effect by soil treatment (Table 19, symbol N); assay type: in vivo, redroot pigweed (Amaranthus retroflexus)
In short: as §1

[11] = test system: Italian ryegrass; assay: Test Example 5: herbicidal effect by foliage application, plastic box (Table 20, symbol K); assay type: in vivo, Italian ryegrass (Lolium multiflorum); conditions: foliage application, 3 weeks after application
In short: as §2

[12] = test system: chickweed; assay: Test Example 4: herbicidal effect by soil treatment (Table 19, symbol P); assay type: in vivo, common chickweed (Stellaria media)
In short: as §1

[13] = test system: green foxtail; assay: Test Example 4: herbicidal effect by soil treatment (Table 19, symbol G); assay type: in vivo, green foxtail (Setaria viridis)
In short: as §1

[14] = test system: southern crabgrass; assay: Test Example 4: herbicidal effect by soil treatment (Table 19, symbol F); assay type: in vivo, southern crabgrass (Digitaria ciliaris)
In short: as §1

[15] = test system: Japanese bulrush; assay: Test Example 2: herbicidal activity, application during weed generation under submerged conditions (Table 17, symbol B); assay type: in vivo, Japanese bulrush (Schoenoplectus juncoides); conditions: application during weed generation, submerged conditions
In short: as §3

| SMILES | R: persian speedwell, herbicidal effect rating ([1]; AAH 320 g/ha) | effect on barnyard grass (H) ([2]; 320 g/ha) | effect on lambsquarters (O) ([3]; 320 g/ha) | Herbicidal effect on A: late watergrass (grade 0-5) ([4]; 320 g/ha applied herbicide) | K: Italian ryegrass, herbicidal effect rating ([5]; AAH 320 g/ha) | effect on persian speedwell (R) ([6]; 320 g/ha) | herbicidal effect rating, C: oval-leafed pondweed ([7]; AAH 320 g/ha) | J: blackgrass, herbicidal effect rating ([8]; AAH 320 g/ha) | effect on southern crabgrass (F) ([9]; 320 g/ha) | N: redroot pigweed, herbicidal effect rating ([10]; AAH 320 g/ha) | effect on Italian ryegrass (K) ([11]; 320 g/ha) | P: chickweed, herbicidal effect rating ([12]; AAH 320 g/ha) | G: green foxtail, herbicidal effect rating ([13]; AAH 320 g/ha) | F: southern crabgrass, herbicidal effect rating ([14]; AAH 320 g/ha) | herbicidal effect rating, B: Japanese bulrush ([15]; AAH 320 g/ha) | other results |
| --- | --- | --- | --- | --- | --- | --- | --- | --- | --- | --- | --- | --- | --- | --- | --- | --- |
| Cc1nn(C)c(=O)c(-c2c(-c3ccc(OCCC(F)(F)F)cc3)sc3ccccc23)c1O [1-206] | 5 (Herbicidal rate of 90% or more (almost completely withered)) | 5 (Herbicidal rate of 90% or more (almost completely withered)) | 5 (Herbicidal rate of 90% or more (almost completely withered)) | 5 (Herbicidal rate of 90% or more (almost completely withered)) | 5 (Herbicidal rate of 90% or more (almost completely withered)) | 5 (Herbicidal rate of 90% or more (almost completely withered)) | 5 (Herbicidal rate of 90% or more (almost completely withered)) | 4 (Herbicidal rate of 70% or more and less than 90%) | 5 (Herbicidal rate of 90% or more (almost completely withered)) | 5 (Herbicidal rate of 90% or more (almost completely withered)) | 5 (Herbicidal rate of 90% or more (almost completely withered)) | 3 (Herbicidal rate of 40% or more and less than 70%) | 5 (Herbicidal rate of 90% or more (almost completely withered)) | 4 (Herbicidal rate of 70% or more and less than 90%) | 3 (Herbicidal rate of 40% or more and less than 70%) |  |
| C=C(C)COc1ccc(-c2sc3ccccc3c2-c2c(O)c(C)nn(C)c2=O)cc1 [1-208] | 5 (Herbicidal rate of 90% or more (almost completely withered)) | 5 (Herbicidal rate of 90% or more (almost completely withered)) | 5 (Herbicidal rate of 90% or more (almost completely withered)) | 5 (Herbicidal rate of 90% or more (almost completely withered)) | 4 (Herbicidal rate of 70% or more and less than 90%) | 5 (Herbicidal rate of 90% or more (almost completely withered)) | 3 (Herbicidal rate of 40% or more and less than 70%) | 0 (Herbicidal rate of 5% or less (almost no effect)) | 5 (Herbicidal rate of 90% or more (almost completely withered)) | 0 (Herbicidal rate of 5% or less (almost no effect)) | 5 (Herbicidal rate of 90% or more (almost completely withered)) | 3 (Herbicidal rate of 40% or more and less than 70%) | 0 (Herbicidal rate of 5% or less (almost no effect)) | 0 (Herbicidal rate of 5% or less (almost no effect)) | 3 (Herbicidal rate of 40% or more and less than 70%) |  |
| C=C(Br)COc1ccc(-c2sc3ccccc3c2-c2c(O)c(C)nn(C)c2=O)cc1 [1-215] | 3 (Herbicidal rate of 40% or more and less than 70%) | 5 (Herbicidal rate of 90% or more (almost completely withered)) | 5 (Herbicidal rate of 90% or more (almost completely withered)) | 5 (Herbicidal rate of 90% or more (almost completely withered)) | 0 (Herbicidal rate of 5% or less (almost no effect)) | 5 (Herbicidal rate of 90% or more (almost completely withered)) | 3 (Herbicidal rate of 40% or more and less than 70%) | 0 (Herbicidal rate of 5% or less (almost no effect)) | 2 (Herbicidal rate of 20% or more and less than 40%) | 5 (Herbicidal rate of 90% or more (almost completely withered)) | 4 (Herbicidal rate of 70% or more and less than 90%) | 1 (Herbicidal rate of 5% or more and less than 20%) | 0 (Herbicidal rate of 5% or less (almost no effect)) | 0 (Herbicidal rate of 5% or less (almost no effect)) | 3 (Herbicidal rate of 40% or more and less than 70%) |  |
| Cc1nn(C)c(=O)c(-c2c(-c3ccc(OCCC4OCCO4)cc3)sc3ccccc23)c1O [1-223] |  |  |  |  |  |  |  |  |  |  |  |  |  |  |  | R: persian speedwell, herbicidal effect rating ([1]; AAH 246 g/ha): 0 (Herbicidal rate of 5% or less (almost no effect)); effect on barnyard grass (H) ([2]; 246 g/ha): 5 (Herbicidal rate of 90% or more (almost completely withered)); effect on lambsquarters (O) ([3]; 246 g/ha): 5 (Herbicidal rate of 90% or more (almost completely withered)); Herbicidal effect on A: late watergrass (grade 0-5) ([4]; 246 g/ha applied herbicide): 5 (Herbicidal rate of 90% or more (almost completely withered)); K: Italian ryegrass, herbicidal effect rating ([5]; AAH 246 g/ha): 0 (Herbicidal rate of 5% or less (almost no effect)); effect on persian speedwell (R) ([6]; 246 g/ha): 5 (Herbicidal rate of 90% or more (almost completely withered)); herbicidal effect rating, C: oval-leafed pondweed ([7]; AAH 246 g/ha): 3 (Herbicidal rate of 40% or more and less than 70%); J: blackgrass, herbicidal effect rating ([8]; AAH 246 g/ha): 0 (Herbicidal rate of 5% or less (almost no effect)); effect on southern crabgrass (F) ([9]; 246 g/ha): 4 (Herbicidal rate of 70% or more and less than 90%); N: redroot pigweed, herbicidal effect rating ([10]; AAH 246 g/ha): 4 (Herbicidal rate of 70% or more and less than 90%); effect on Italian ryegrass (K) ([11]; 246 g/ha): 3 (Herbicidal rate of 40% or more and less than 70%); P: chickweed, herbicidal effect rating ([12]; AAH 246 g/ha): 0 (Herbicidal rate of 5% or less (almost no effect)); G: green foxtail, herbicidal effect rating ([13]; AAH 246 g/ha): 2 (Herbicidal rate of 20% or more and less than 40%); F: southern crabgrass, herbicidal effect rating ([14]; AAH 246 g/ha): 0 (Herbicidal rate of 5% or less (almost no effect)); herbicidal effect rating, B: Japanese bulrush ([15]; AAH 246 g/ha): 3 (Herbicidal rate of 40% or more and less than 70%) |
| CSCCSCc1ccc(-c2sc3ccccc3c2-c2c(O)c(C)nn(C)c2=O)cc1 [1-253] | 5 (Herbicidal rate of 90% or more (almost completely withered)) | 5 (Herbicidal rate of 90% or more (almost completely withered)) | 5 (Herbicidal rate of 90% or more (almost completely withered)) | 3 (Herbicidal rate of 40% or more and less than 70%) | 0 (Herbicidal rate of 5% or less (almost no effect)) | 5 (Herbicidal rate of 90% or more (almost completely withered)) | 0 (Herbicidal rate of 5% or less (almost no effect)) | 0 (Herbicidal rate of 5% or less (almost no effect)) | 1 (Herbicidal rate of 5% or more and less than 20%) | 3 (Herbicidal rate of 40% or more and less than 70%) | 4 (Herbicidal rate of 70% or more and less than 90%) | 3 (Herbicidal rate of 40% or more and less than 70%) | 0 (Herbicidal rate of 5% or less (almost no effect)) | 0 (Herbicidal rate of 5% or less (almost no effect)) | 0 (Herbicidal rate of 5% or less (almost no effect)) |  |
